Entries after “also recorded” stand apart in the source; their conditions may differ.
Legend:
PI3K = PI3K kinase assay in anti-IRS-1 immunoprecipitates; assay type: cell-based; conditions: Panc-1, 24 hours; ZPP 200 μM, Y29794 0.5 μM or rapamycin alone
Procedure: PI3K kinase assay kit (Calbiochem, Bilerica, Mass., USA) was used to measure the IRS-1-associated or p85-associated PI3K kinase activity in cells. The indicated cells were treated with different conditions for 24 hours. The cells were rinsed three times with pre-cooled PBS, lysed in 500 μl of lysis buffer (150 mmol/L Nacl, 1% Triton-x-100, 50 mmol/1 Tris (pH8.0, 1 mmol/L PMSF, 1 μg/L aprotinin, 1 μg/Lleupeptin, 1 μg/L peptain). Cell lysates (500 μg, in triplicate) of were used for anti-IRS-1 or anti-p85 immunoprecipitation. The immunoprecipitates were resuspended in 200 μl assay buffer and mixed with the fluorescence-labeled PI3K substrate BODIPY-TMR-phosphatidylinositol (100 μM) and ATP (37° C.) for 1 hour. The fluorescence intensity was measured with a fluorometer (excitation wavelength of 540 nm, emission wavelength […]). The difference between fluorescence intensity between control immunoprecipitates (no lysates) and lysate immunoprecipitates was used to indicate PI3K kinase activity. IR-1 anti-rabbit antibody and rabbit anti-PI3K p85 antibody were purchased from Millipore Corporation (Billerica, Mass., USA). Panc-1 anti-p85 immunoprecipitates were used for PI3K kinase assay (FIG. 12) and immunoblot analysis (FIG. 12). Rapamycin treatment in control cells increased PI3K kinase activity (P<0.01). […]

Panc-1 tumor = assay: Xenotransplanted Panc-1 pancreatic tumor growth in SCID mice; assay type: in vivo, SCID mice (BALB/C)
Procedure: 4-6 week-old male SCID mice (BALB/C) were purchased from Charles River laboratories (Wilmington, Mass., USA). Pane-1 cells at about 80% confluence were trypsinized with 0.25% trypsin and 0.02% EDTA. The cell suspension was centrifuged after addition of 10% FBS. 10^6 cells were resuspended in 100 μl PBS buffer containing 10% Matrigel, and injected with a 1-cc syringe with a 27-30 sized needle into the right flank of nude mice under anesthesia. After tumor formation (mean volume 50-60 mm^3) the mice were randomly divided into four groups (6 mice per group): control group, rapamycin treatment group, Y29794 treatment group, and Y29794 plus rapamycin treatment group. Rapamycin and Y29794 were dissolved in Cremophor formulation (20% Cremophor EL, 30% propylene glycol, 50% ethanol). Rapamycin (2 mg/kg body weight) was given by intraperitoneal injection one dose per week. Y29794 (20 mg/kg body weight) was administered by gavage five doses a week. Weekly measurements of tumor size (length, width and depth) and calculation of the tumor volume (½ larger diameter×(smaller diameter)) were carried until the control tumors reached 1000 mm^3.

IRS-1 = assay: Immunoblot analysis of IRS-1 (protein, phosphorylation, half-life, p85 coimmunoprecipitation); assay type: cell-based; conditions: for rapamycin-induced increase in IRS-1: rapamycin 10 nM plus ZPP 200 μM or Y29794 0.5 μM, 24 hours
Procedure: 2.2 Immunoblot analysis of gene silencing of PRCP or PREP in cancer cells. Mouse anti-PRCP antibody was purchased from Abcam (Cambridge, Mass., USA). Goat anti-PREP antibody was purchased from R&D Systems (Minneapolis, Minn., USA). Mouse anti-R-actin antibody antibodies was from Santa Cruz Biotechnology (Santa Cruz, Calif., USA). Panc-1 pancreatic cancer cells and MCF7 breast cancer cells were cultured to 80% confluence, cells were rinsed three times with pre-cooled PBS, 500 μl of lysis buffer (150 mmol/L Nacl, 1% Triton-x-100, 50 mmol/l TrispH8.0, 1 mmol/L PMSF, 1 ug/L aprotinin, 1 ug/L leupeptin, 1 ug/L peptain) was added to the cells. Cells were scraped and transferred to a centrifuge tube with a pipette. The lysates were spun in a microcentrifuge at maximal speed for 10 minutes at 4° C. to get rid of the insoluble fraction. Protein concentration was determined by Bradford assay. For immunoprecipitation: 2-5 ug protein-specific antibodies were added to 250-500 ug of lysates in a tube and incubated on an ordital shaker 4° C. for 2-4 hours with moderate shaking, then 20 ul Protein G beads (Santa Cruz Biotechnology (Santa Cruz, Calif., USA.) were added and the mixture was incubated with moderate shaking for another hour. After washing the beads in lysis buffer five times, the immunoprecipitates were boiled in 2× Laemmli sample buffer (50 mmoL/L Tris-HCL (pH8.0), 100 mmoL/L DTT, 2% SDS, 0.1% bromophenol blue, 10% glycerol) for five minutes. The proteins were separated by conventional SDS-polyacrylamide gel electrophoresis (SDS-PAGE) electrophoresis and transferred to Amersham Hybond-P PVDF membrane (GE Company, Pittsburgh, Pa., USA). For immunoblot, the membrane was blocked in 2% BSA in TBST buffer (Tris 1.21 g+NaCl 5.84 g+800 ml H2O adjusted to pH 8.0 with HCl) for one hour and then incubated with primary antibodies in TBST at room temperature (22-25° C.) for 2 hours. After washing three times with TBST, the membrane was incubated with HRP-conjugated secondary antibodies for 0.5 hours at room temperature. After washing the membrane five times with TBST (5 minutes/each), the membrane was incubated with ECL chromogenic reagent (GE Company, Pittsburgh, Pa., USA) for 1-5 minutes. The blots were exposed to films in darkroom for 1-5 minute. The films were developed in an automatic X-OMAT Developer (KODAK, Rochester, N.Y., USA). […] PREP gene silencing (PREP KD) or PRCP gene silencing (PRCP KD) or gene silencing both PRCP and PREP (DKD) in MCF7 cells reduces expression of PREP and/or PRCP proteins compared with control cells (control) (FIGS. 6B & 6C).
3.2 AKT phosphorylation was examined by immunoblot as described in 3.1. IRS-1 expression was analyzed by immunoblot using anti-IRS-1 antibodies purchased from Santa Cruz Biotechnology (Santa Cruz, Calif., USA). Reduction in PRCP and/or PREP by gene silencing is shown by Western blot and quantitative PCR described in 2.2.
3.4 ZPP or Y29794 inhibits IRS-1 tyrosine phosphorylation and p85 PI3K subunit interaction with IRS-1 and PI3K kinase activity. Panc-1 cells were treated with ZPP (200 μM) or Y29794 (0.5 μM) for 24 hours. Lysates were immunoprecipitated with anti-IRS-1 antibodies and the anti-IRS-1 immunoprecipitates were used for PI3K kinase assay and anti-IRS-1 phospho-tyrosine and anti-p85 immunoblot analysis (FIG. 13). ZPP or Y29794 decreased IRS-1-associated PI3K activity (FIG. 13, upper) and tyrosine phosphorylation of IRS-1 and p85 (FIG. 13, lower).
As described in Example 2.2 and above, the cells with PRCP and PREP gene silencing were used for analysis of PRCP and PREP gene silencing and inhibition of serine phosphorylation and degradation of IRS-1 and its effects on response to rapamycin. […] Compared to control cells, DKD cells show […] serine phosphorylation (S307 and S636/639) of IRS-1 alongside with decreased tyrosine phosphorylation of IRS-1 (FIG. 18B). […]

[1] = Panc-1, 24 hours, ZPP 200 μM or Y29794 0.5 μM

- IRS-1-associated PI3K activity (PI3K): reduce; also recorded: decreased
SMILES: CC(C)c1ccc(C(=O)c2cccs2)c(SCCCCCCCCN(C)C)n1 [Y29794, [2-[8-(dimethylamino)octylsulfanyl]-6-propan-2-ylpyridin-3-yl]-thiophen-2-ylmethanone]
- tumor growth (tumor volume), combination (Panc-1 tumor; Y29794 20 mg/kg by gavage five doses a week plus rapamycin 2 mg/kg intraperitoneal one dose per week): synergistic effect; also recorded: inhibited tumor growth (P<0.01) more than Y29794 alone
- tumor growth (tumor volume) (Panc-1 tumor; Y29794 alone, 20 mg/kg by gavage five doses a week, vs control group, 20 mg/kg): significantly reduces; also recorded: significantly inhibited
- rapamycin-induced increase in IRS-1 (IRS-1; MCF7): blocked
- p85 coimmunoprecipitated with IRS-1 (IRS-1; [1]): reduces; also recorded: decreased
- tyrosine phosphorylation of IRS-1 in anti-IRS-1 immunoprecipitates (IRS-1; [1]): reduces; also recorded: decreased
- IRS-1 protein (IRS-1; Panc-1, Y29794 1 μM (FIG. 19A, 19B)): reduces; also recorded: significantly reduced
- serine phosphorylation (S307 and S636/639) of IRS-1 (IRS-1; Panc-1, Y29794 1 μM (FIG. 19B)): induces; also recorded: increased
- rapamycin-induced increase in IRS-1 protein (IRS-1; Panc-1, Y29794 1 μM with rapamycin (FIG. 19D)): inhibits; also recorded: not increased nor stabilized
- rapamycin-induced increase in IRS-1 (IRS-1; Panc-1): blocked
